Source: publication PMC8929047, “Synthetic Oligopeptides Mimicking γ-Core Regions of Cysteine-Rich Peptides of Solanum lycopersicum Possess Antimicrobial Activity against Human and Plant Pathogens” (Current Issues in Molecular Biology, 2021)
Peptide text beside a SMILES is read from it.

What was measured:
[1] = system: Cryptococcus neoformans VKM Y-2755
Experimental: (§1) The antimicrobial activity of synthetic peptides was tested against the yeasts Cryptococcus neoformans VKM Y-2755 and Candida albicans VKM Y-2994, as well as against the bacteria Pectobacterium carotovorum subsp. carotovorum VKM B-1247, Pseudomonas savastanoi pv. savastanoi VKM B-1546 and Clavibacter michiganensis subsp. michiganensis VKM Ac-1403. All cultures were obtained from the All-Russian Collection of Microorganisms (VKM). Yeasts were grown on YPD-P medium containing (g/L): glucose–10, peptone–5 and yeast extract–4. Bacterial cultures were grown on medium containing (g/L): yeast extract–1, soya extract–30, aminopeptides (a solution of low-molecular weight peptides and all essential amino acids obtained from the blood of cattle by enzymatic hydrolysis)–60, tryptone–5 and pH 7.2. The microbial cultures were grown on a shaker at 30 °C for 24 h. The optical density of the cultures was measured on a UNICO 1201 (Unico, Dayton, NJ, USA) spectrophotometer at 594 nm. Yeast cultures were diluted 1:10 with water before analysis. […] The antibiotic activity of peptides against yeasts and bacteria was assayed in immunoassay microtiter plates. 10 µL of the tested peptide solution (final concentrations of 10–300 µM) in water, 80 µL of the medium and 10 µL of the microbial suspension were mixed in a well of the microtiter plate and incubated at 30 °C for 24 h; after that, the absorbance of the suspension was measured on an Efos 9305 spectrophotometer (Sapphire, Moscow, Russia) at 594 nm.
(§2) Antimicrobial activity was expressed in IC50 values, which denote the concentration required for 50% inhibition of the pathogen growth; this was determined from a graph showing the dependence of antimicrobial activity on peptide concentration.
For each pathogen, experiments on the evaluation of antimicrobial activity of the synthetic peptides were performed with three replicates per treatment. Mean values, standard deviations (SD), and the significance of differences (p ≤ 0.05) of the means between treatments and controls (t-test for independent variables) were determined using […] v. 6.1 software (StatSoft Inc., Tulsa, OK, USA).

[2] = system: Clavibacter michiganensis subsp. michiganensis VKM Ac-1403; format: cell-based
Experimental: as §1, §2
(§3) For each pathogen, experiments on the evaluation of antimicrobial activity of the synthetic peptides were performed with three replicates per treatment. Mean values, standard deviations (SD), and the significance of differences (p ≤ 0.05) of the means between treatments and controls (t-test for independent variables) were determined using STATISTICA v. 6.1 software (StatSoft Inc., Tulsa, OK, USA).

F. solani VKM F-142 = format: cell-based, Fusarium solani
Experimental: (§4) To study the effect of peptides on spore germination and growth of plant pathogenic fungi, fungal strains from the VKM collection were used: Fusarium culmorum VKM F-2303, F. oxysporum VKM F-137, F. solani VKM F-142, F. verticillioides VKM F-670, Bipolaris sorokiniana VKM F-4006, and Botrytis cinerea VKM F-4549. The fungi were grown on potato dextrose agar at 25 °C for 7–8 days, or for B. sorokiniana and B. cinerea, for 10–12 days. Spores were washed off from the surface of the mycelia with sterile distilled water and filtered through a sterile filter. The filtrate was centrifuged at 6000 rpm for 15 min. The precipitate was washed three times with sterile distilled water, transferred to Eppendorf tubes, and centrifuged at 10,000 rpm for 2 min. 1 mL of sterile aqueous 20% glycerol solution was added to the spores, and the tubes with spores were stored in a freezer at −20 °C.
(§5) Similar to antimicrobial assays with yeasts and bacteria, the effect of peptides on spore germination and fungal growth was studied by measuring the absorbance of the spore suspension in the presence of the peptide in microtiter plates. The wells of a plate were filled with 90 µL of spore suspension in half-strength potato dextrose broth at a concentration of 2000–3000 spores in 100 µL and 10 µL of aqueous solutions of peptides at final concentrations of 10–300 µM. The concentration of spores in the suspension was determined in the Goryaev chamber. The absorbance was recorded at 595 nm on a FilterMax F5 Multi-Mode Microplate Reader (Molecular Devices, San Jose, CA, USA) after 38 h of incubation, for B. sorokiniana and B. cinerea, after 14, 19, 24, 38, 43, 62 h. […]
(§6) For each pathogen, experiments on the evaluation of antimicrobial activity of the synthetic peptides were performed with three replicates per treatment. Mean values, standard deviations (SD), and the significance of differences (p ≤ 0.05) of the means between treatments and controls (t-test for independent variables) were determined using STATISTICA v. […]

[3] = system: F. verticillioides VKM F-670; format: cell-based, Fusarium verticillioides; details: Fusarium verticillioides; 38 h incubation, absorbance 595 nm; max tested 180 μM; mean ± SD, three replicates
Experimental: as §4, §5, §6

[4] = system: Fusarium culmorum VKM F-2303; test: Spore germination and fungal growth inhibition (absorbance); format: cell-based; details: for IC50: Fusarium culmorum, 38 h incubation, absorbance 595 nm, max tested 150 μM, mean ± SD, three replicates
Experimental: as §4
(§7) Similar to antimicrobial assays with yeasts and bacteria, the effect of peptides on spore germination and fungal growth was studied by measuring the absorbance of the spore suspension in the presence of the peptide in microtiter plates. The wells of a plate were filled with 90 µL of spore suspension in half-strength potato dextrose broth at a concentration of 2000–3000 spores in 100 µL and 10 µL of aqueous solutions of peptides at final concentrations of 10–300 µM. The concentration of spores in the suspension was determined in the Goryaev chamber. The absorbance was recorded at 595 nm on a FilterMax F5 Multi-Mode Microplate Reader (Molecular Devices, San Jose, CA, USA) after 38 h of incubation, for B. sorokiniana and B. cinerea, after 14, 19, 24, 38, 43, 62 h.
as §2, §3

F. oxysporum VKM F-137 = format: cell-based; details: Fusarium oxysporum; 38 h incubation, absorbance 595 nm; max tested 150 μM; mean ± SD, three replicates
Experimental: as §4, §7, §2, §3

[5] = system: Bipolaris sorokiniana VKM F-4006; test: Spore germination and fungal growth inhibition (absorbance); format: cell-based; details: peptide 60 μM, effect observed after 38 h of spore incubation, control H2O
Experimental: as §4, §7, §2, §3

[6] = system: Botrytis cinerea VKM F-4549; format: cell-based; details: for B. cinerea growth dynamics in the presence of peptide: peptide 60 μM, absorbance after 14-62 h, control H2O
Experimental: as §4, §7, §2, §3

Fusarium species = test: Spore germination and fungal growth inhibition, statement for all tested Fusarium species; format: cell-based; details: peptide 300 μM, relative to control
Experimental: as §4, §5, §6

[7] = peptide 300 μM, 24 h, relative to control

`CC(C)C[C@H](NC(=O)[C@H](CCCNC(=N)N)NC(=O)[C@H](CS)NC(=O)[C@H](CCCNC(=N)N)NC(=O)[C@H](C)NC(=O)[C@H](C)NC(=O)[C@H](CS)NC(=O)[C@H](C)NC(=O)CN)C(=O)N[C@@H](CO)C(=O)N[C@@H](CO)C(=O)N[C@@H](CCCNC(=N)N)C(=O)N1CCC[C@H]1C(=O)N[C@@H](CCCNC(=N)N)C(=O)N[C@@H](CC(C)C)C(=O)N[C@@H](CS)C(=O)N[C@@H](Cc1c[nH]cn1)C(=O)N[C@@H](CCCNC(=N)N)C(=O)O` [γ48-65SlSN2] (H-GACAARCRLSSRPRLCHR-OH) was tested, and the IC50 ([1]; Cryptococcus neoformans, 24 h incubation, 30 °C, absorbance 594 nm, max tested 100 μM, mean ± SD, three replicates) was 4.2 ± 0.6 µM, the IC50 ([2]; Clavibacter michiganensis, 24 h incubation, 30 °C, absorbance 594 nm, max tested 100 μM, mean ± SD, three replicates) was 23.1 ± 2.7 µM and the IC50 (F. solani VKM F-142; Fusarium solani, 38 h incubation, absorbance 595 nm, max tested 150 μM, mean ± SD, three replicates) was 47.5 ± 2 µM. The “Maximum inhibition of F. solani” value (F. solani VKM F-142; peptide 150 μM, 38 h) was 69%, the IC50 [3] was 152 ± 7.7 µM and the IC50 [4] was 42.1 ± 6.5 µM. The “Inhibition of F. culmorum growth” value ([4]; peptide 75 μM, 38 h) was 79% and the IC50 (F. oxysporum VKM F-137) was 57.1 ± 11.6 µM.
`C[C@@H](O)[C@H](NC(=O)[C@H](CCCCN)NC(=O)[C@@H]1CCCN1C(=O)[C@@H](NC(=O)[C@H](Cc1ccccc1)NC(=O)[C@H](CO)NC(=O)[C@H](CS)NC(=O)[C@H](Cc1ccc(O)cc1)NC(=O)CNC(=O)[C@H](Cc1ccccc1)NC(=O)[C@@H]1CCCN1C(=O)[C@@H](N)CCCNC(=N)N)[C@@H](C)O)C(=O)N[C@@H](CS)C(=O)O` [γ92-104SlMEG2] (H-RPFGYCSFTPKTC-OH; N-terminus and C-terminus assumed) was tested, and the “Inhibition of C. neoformans growth” value [1, 7] was “with high efficiency”, the “Inhibition of C. michiganensis growth” value [2, 7] was “with high efficiency” and the “B. sorokiniana growth dynamics in the presence of peptide” value [5] was “significant growth suppression”. For the same compound, the “B. cinerea growth dynamics in the presence of peptide” value [6] was “insensitive”, the “Inhibition of B. cinerea growth” value ([6]; peptide 300 μM, relative to control) was 36–40% and the “Suppression of Fusarium species” value (Fusarium species) was “insensitive”.
In the case of `CC(C)C[C@H](NC(=O)[C@H](CC(N)=O)NC(=O)[C@H](CCC(N)=O)NC(=O)[C@H](CCCNC(=N)N)NC(=O)[C@H](CO)NC(=O)[C@H](CO)NC(=O)[C@H](CCCCN)NC(=O)[C@H](CO)NC(=O)[C@H](CS)NC(=O)[C@H](CCCNC(=N)N)NC(=O)[C@@H](NC(=O)[C@H](CCCCN)NC(=O)[C@H](CS)NC(=O)[C@H](CO)NC(=O)CN)[C@@H](C)O)C(=O)N[C@@H](CS)C(=O)N[C@@H](CC(N)=O)C(=O)N[C@@H](CCCNC(=N)N)C(=O)O` [γ47-64SlSN10] (H-GSCKTRCSKSSRQNLCNR-OH), the IC50 [4] is reported as 127 ± 8.5 µM and the IC50 (F. oxysporum VKM F-137) is reported as 43.8 ± 6.8 µM.
With `CC[C@H](C)[C@H](NC(=O)[C@H](CCC(=O)O)NC(=O)[C@@H]1CCCN1C(=O)[C@H](CS)NC(=O)[C@H](CS)NC(=O)CNC(=O)[C@@H](N)CCCCN)C(=O)N[C@@H](C)C(=O)NCC(=O)N[C@@H](CC(C)C)C(=O)N[C@@H](CC(C)C)C(=O)N[C@@H](CC(=O)O)C(=O)N[C@@H](CO)C(=O)N[C@@H](CC(N)=O)C(=O)N1CCC[C@H]1C(=O)N[C@H](C(=O)N[C@@H](CS)C(=O)O)[C@@H](C)CC` [γ70-86SlLTPg2.8] (H-KGCCPEIAGLLDSNPIC-OH; N-terminus and C-terminus assumed) the “B. cinerea growth dynamics in the presence of peptide” value [6] was “insensitive”.
